Assay results from patent US20220313651A1, “INHIBITORS OF ZIKA VIRUS INFECTION” (priority 2019, published 2022).
Like-named read-outs stand apart in the source and are kept apart here.

Assays:
ZIKV PAN2016 strain = assay: Combinatorial effects of gossypol with other Z-medicaments, ZIKV PAN2016; assay type: cell-based, Zika virus (ZIKV); details: for Fold of Enhancement / CI (combination index): ZIKV PAN2016; for Fold of Enhancement: IC50 alone / in mixture; for CI (combination index): named compound in combination with gossypol
Method: (§1) The unbound viruses and Z-medicaments were removed, and the cells were cultured at 37° C. for 4-5 days, followed by staining with 0.5% crystal violet. The Z-medicaments without combinations were used as controls. The IC50 of the Z-medicaments was calculated as described above.
(§2) The Z-medicaments were then analyzed for synergistic effects based on the combination index (CI) and IC50 values using the CalcuSyn program. Specifically, CI values <1 and >1 indicate synergy and antagonism, respectively. Synergy was further identified as five different categories: CI values <0.1, 0.1-0.3, 0.3-0.7, 0.7-0.85, and 0.85-0.90 indicate very strong synergism, strong synergism, synergism, moderate synergism, and slight synergism, respectively. Fold enhancement of anti-ZIKV potency is expressed as the ratio of molar concentrations of the Z-medicaments tested alone and in the mixture.

ZIKV PRVABC59 strain = assay: Combinatorial effects of gossypol with other Z-medicaments, ZIKV PRVABC59; assay type: cell-based, Zika virus (ZIKV); details: for Fold of Enhancement: IC50 alone / in mixture; for CI (combination index): named compound in combination with gossypol
Method: as §1, §2

[1] = test system: ZIKV human strain FLR (2015/Colombia); assay: Plaque reduction inhibition assay in Vero E6 cells, ZIKV FLR; assay type: cell-based, Zika virus (ZIKV)
Method: (§3) A plaque reduction inhibition assay was carried out to measure the inhibitory activity of Z-medicaments against infections of ZIKV and DENV. […] The compound-virus mixtures were then transferred to Vero E6 cells (10^5/well) and incubated at 37° C. for 1 h.

[2] = test system: ZIKV human strain PLCal_ZV (2013/Thailand); assay: Plaque reduction inhibition assay in Vero E6 cells, ZIKV PLCal_ZV; assay type: cell-based, Zika virus (ZIKV)
Method: as §3

[3] = test system: DENV-3-V1043 (2006/Puerto Rico); assay: microbe, parasite or virus in culture
Description: (§4) Vero E6 and LLC-MK2 cells were maintained in Dulbecco's Modified Eagle Medium (DMEM) supplemented with 8% fetal bovine serum (FBS) and penicillin and streptomycin (P/S). C6/36 cells were maintained in Eagle's Minimal Essential Medium (EMEM) supplemented with 5% FBS and P/S. ZIKV strains, including human strains PAN2016 (2016/Panama), R116265 (2016/Mexico), PAN2015 (2015/Panama), FLR (2015/Colombia), R103451 (2015/Honduras), PRVABC59 (2015/Puerto Rico), PLCal_ZV (2013/Thailand), and IbH 30656 (1968/Nigeria), mosquito strain MEX 2-81 (2016/Mexico), and rhesus macaque strain MR 766 (1947/Uganda), were used in the studies. These ZIKV strains were cultured in Vero E6 cells, and viral titers were detected by a standard plaque-forming assay. DENV human strains, including type 1: DENV-1-V1792 (2007/Vietnam), type 2: DENV-2-V594 (2006/Puerto Rico), type 3: DENV-3-V1043 (2006/Puerto Rico), and type 4: DENV-4-PR 06-65-740 (2006/Puerto Rico), were cultured in C6/36 cells, and the viral titers were determined by plaque-forming assay as described above.
(§5) The inhibitory activity of the Z-medicaments against DENV-1-4 was performed following the similar procedures as for ZIKV, except that LLC-MK2 cells were used for the infection, and cells were cultured at 37° C. for 14-16 days before staining with 0.5% crystal violet.
(§6) After removal of the unbound compounds by centrifugation after addition of 3% PEG-6000, ZIKV was incubated with Vero E6 cells at 37° C. for 1 h. The cells were then washed with PBS, overlaid with DMEM containing 1% carboxymethyl cellulose and 2% FBS, and cultured at 37° C. for 4-5 days, followed by staining with 0.5% crystal violet.

[4] = test system: DENV-2-V594 (2006/Puerto Rico); assay: microbe, parasite or virus in culture
Description: as §4, §5, §6

[5] = test system: DENV-1-V1792 (2007/Vietnam); assay: microbe, parasite or virus in culture
Description: as §4, §5, §6

[6] = test system: DENV-4-PR 06-65-740 (2006/Puerto Rico); assay: microbe, parasite or virus in culture
Description: as §4, §5, §6

LLC-MK2 cells = test system: LLC-MK2 cells
Method: The cytotoxicity of Z-medicaments in LLC-MK2 (DENV-1-4 target cells) was detected using Cell Counting Kit-8 (CCK8). […] The cells were then incubated with CCK8 solution, and measured absorbance at 450 nm (A450 value) using a microplate reader.
Briefly, compounds at 2-fold serial dilutions were added to cells (2.0×10^4/well) pre-seeded in 96-well plates. The cells were cultured at 37° C. for 3 days, and incubated with CCK8 solution, followed by measurement of absorbance at 450 nm (A450 value) using microplate reader.

[7] = Zika virus, Vero C1008, Vero E6 cells, Table 1, read-out: IC50 against ZIKV strain FLR
[8] = Zika virus, Vero C1008, Vero E6 cells, Table 1, read-out: IC50 against ZIKV strain PLCal_ZV
[9] = Dengue virus, DENV3, LLC-MK2, read-out: IC50 DENV-3-V1043, LLC-MK2 cells, Table 5
[10] = Dengue virus, DENV2, LLC-MK2, read-out: IC50 DENV-2-V594, LLC-MK2 cells, Table 5
[11] = Dengue virus, DENV1, LLC-MK2, read-out: IC50 DENV-1-V1792, LLC-MK2 cells, Table 5
[12] = Dengue virus, DENV4, LLC-MK2, read-out: IC50 DENV-4-PR 06-65-740, LLC-MK2 cells, Table 5

Q: What does the source list for `C[C@H]1[C@H]2CC[C@H]3[C@@H]4CC=C5C[C@@H](N(C)C)CC[C@]5(C)[C@H]4CC[C@]23CN1C` [Conessine, conessine]?
A: Fold of Enhancement (ZIKV PAN2016 strain; gossypol + conessine): 4.44; CI (combination index) (ZIKV PAN2016 strain): 0.44; Fold of Enhancement (ZIKV PRVABC59 strain; gossypol + conessine): 7.29; CI (combination index) (ZIKV PRVABC59 strain): 0.28

Q: How did the IC50 ([1]; Vero E6 cells, Table 7, gossypol derivatives, read-out: ZIKV strains IC50, FLR) turn out when `Cc1cc2c(C(C)C)c(O)c(O)c(/C=N/n3c(=O)[nH][nH]c3=O)c2c(O)c1-c1c(C)cc2c(C(C)C)c(O)c(O)c(/C=N/n3c(=O)[nH][nH]c3=O)c2c1O` [ST087010] was run?
A: 2.76 ± 0.1 µM

Q: What about the IC50 ([2]; Vero E6 cells, Table 7, gossypol derivatives, read-out: ZIKV strains IC50, PLCal_ZV) of the same compound?
A: 2.21 ± 0.08 µM

Q: What about the “SI (CC50/IC50), DENV-3-V1043” value [3] of the same compound?
A: 14.2

Q: What about the IC50 ([3]; read-out: IC50 DENV-3-V1043, LLC-MK2 cells, Table 8) of the same compound?
A: 3.33 ± 0.08 µM

Q: What about the “SI (CC50/IC50), DENV-2-V594” value [4] of the same compound?
A: 14.8

Q: And the IC50 ([4]; read-out: IC50 DENV-2-V594, LLC-MK2 cells, Table 8)?
A: 3.19 ± 0.01 µM

Q: And the “SI (CC50/IC50), DENV-1-V1792” value [5]?
A: 15.7

Q: And the IC50 ([5]; read-out: IC50 DENV-1-V1792, LLC-MK2 cells, Table 8)?
A: 3.01 ± 0.11 µM

Q: And the “SI (CC50/IC50), DENV-4-PR 06-65-740” value [6]?
A: 15.8

Q: And the IC50 ([6]; read-out: IC50 DENV-4-PR 06-65-740, LLC-MK2 cells, Table 8)?
A: 2.98 ± 0.18 µM

Q: And the CC50 (LLC-MK2 cells; Table 8)?
A: 47.2 µM

Q: What does the source list for `COc1cc(/C=C/C(=O)CC(=O)/C=C/c2ccc(O)c(OC)c2)ccc1O` [Curcumin, curcumin]?
A: Fold of Enhancement (ZIKV PAN2016 strain; gossypol + curcumin): 3.60; CI (combination index) (ZIKV PAN2016 strain): 0.52; Fold of Enhancement (ZIKV PRVABC59 strain; gossypol + curcumin): 6.46; CI (combination index) (ZIKV PRVABC59 strain): 0.30; CC50 (LLC-MK2 cells; 3 days, CCK8, Table 5): 59.4 ± 1.18 µM

Q: Which IC50 [1, 7] does the source give for `Cc1cc2c(C(C)C)c(O)c(O)c(C=O)c2c(O)c1-c1c(C)cc2c(C(C)C)c(O)c(O)c(C=O)c2c1O` [Gossypol, gossypol] here?
A: 0.21 ± 0.01 µM

Q: And the IC50 ([1]; Zika virus, Vero C1008, read-out: ZIKV strains IC50, FLR)?
A: 0.73 ± 0.07 µM

Q: What about the IC50 (ZIKV PAN2016 strain; Zika virus, Vero C1008, read-out: IC50 Alone) of the same compound?
A: 3.79 ± 0.01 µM

Q: And the IC50 [2, 8]?
A: 1.98 ± 0.07 µM

Q: What about the IC50 ([2]; Zika virus, Vero C1008, read-out: ZIKV strains IC50, PLCal_ZV) of the same compound?
A: 2.88 ± 0.19 µM

Q: What about the IC50 [3, 9] of the same compound?
A: 3.7 µM

Q: And the IC50 ([3]; Dengue virus, DENV3, LLC-MK2, read-out: IC50 DENV-3-V1043, LLC-MK2 cells, Table 8)?
A: 3.42 ± 0.11 µM

Q: What about the IC50 [4, 10] of the same compound?
A: 1.89 µM

Q: And the IC50 ([4]; Dengue virus, DENV2, LLC-MK2, read-out: IC50 DENV-2-V594, LLC-MK2 cells, Table 8)?
A: 1.91 ± 0.01 µM

Q: What about the IC50 [5, 11] of the same compound?
A: 1.87 µM

Q: And the IC50 ([5]; Dengue virus, DENV1, LLC-MK2, read-out: IC50 DENV-1-V1792, LLC-MK2 cells, Table 8)?
A: 2.06 ± 0.13 µM

Q: What about the IC50 [6, 12] of the same compound?
A: 2.6 µM

Q: What about the IC50 ([6]; Dengue virus, DENV4, LLC-MK2, read-out: IC50 DENV-4-PR 06-65-740, LLC-MK2 cells, Table 8) of the same compound?
A: 2.83 ± 0.07 µM

Q: With `C[C@@H]1CC[C@@]2(OC1)O[C@H]1[C@@H](O)[C@H]3[C@@H]4CC[C@H]5C[C@@H](O[C@@H]6O[C@H](CO)[C@H](O[C@@H]7O[C@H](CO)[C@@H](O)[C@H](O[C@@H]8OC[C@@H](O)[C@H](O)[C@H]8O)[C@H]7O[C@@H]7O[C@H](CO)[C@H](O)[C@H](O[C@@H]8O[C@H](CO)[C@@H](O)[C@H](O)[C@H]8O)[C@H]7O)[C@H](O)[C@H]6O)[C@H](O)C[C@]5(C)[C@H]4CC[C@]3(C)[C@H]1[C@@H]2C` [Digitonin, digitonin] as the compound, how does the IC50 [1, 7] read?
A: 3.34 ± 0.22 µM

Q: And the “Fold of Enhancement” value (ZIKV PAN2016 strain; gossypol + digitonin)?
A: 3.21

Q: And the “CI (combination index)” value (ZIKV PAN2016 strain)?
A: 0.60

Q: And the IC50 [2, 8]?
A: 3.19 ± 0.25 µM

Q: What about the “Fold of Enhancement” value (ZIKV PRVABC59 strain; gossypol + digitonin) of the same compound?
A: 6.98

Q: What about the “CI (combination index)” value (ZIKV PRVABC59 strain) of the same compound?
A: 0.29

Q: What about the IC50 [3, 9] of the same compound?
A: 4.07 ± 0.83 µM

Q: What about the IC50 [4, 10] of the same compound?
A: 6.56 ± 0.21 µM

Q: What about the IC50 [5, 11] of the same compound?
A: 5.21 ± 0.35 µM

Q: What about the IC50 [6, 12] of the same compound?
A: 6.44 ± 0.34 µM

Q: What about the CC50 (LLC-MK2 cells; 3 days, CCK8, Table 5) of the same compound?
A: 59.02 ± 0.33 µM
